Source: patent US20230059705A1, “NITRIFICATION INHIBITOR FUNGICIDE COMPOSITION AND USE THEREOF” (Verdesian Life Sciences U.S., LLC, priority 2019, published 2023)
Where two headings read alike, the source gives them in different places.

Legend:
Nitrosomonas europaea = test: Inhibition of nitrite generation by N. europaea cell suspension (Griess reagent, absorbance 548 nm); type: cell-based; settings: thiram 4 μM, relative to zero inhibitor control, read-out: % control (percent control of nitrification inhibition), observed
Protocol: 1.5 L of cell culture suspension containing Nitrosomonas europaea (N. europaea) bacteria (ATCC #19718) was resuspended into a phosphate buffer (0.1M NaPB, 2 mM Mg SO4, pH of 7.5). The amount of N. europaea protein was quantified using a Biuret assay. A sample of the cell culture suspension containing about 0.3 mg/mL, 0.25 mg/mL, or 0.5 mg/mL of N. europaea protein was incubated with 50 μL of (NH4)2SO4 in a total reaction volume of 5 mL. The test measured inhibition for treatment rates of 4 μM thiram, 100 μM nitrapyrin, 100 μM of formulation 2 (form.2), formulation 3 (form.3), formulation 4 (form.4) and 100 μM of formulation 2 (form.2) plus 4 μM thiram, 100 μM of formulation 3 (form.3) plus 4 μM thiram and 100 μM of formulation 4 (form.4) plus 4 μM thiram; an untreated N. europaea assay served as the control. At time points 0, 30, and 60 minutes post addition of (NH4)2SO4, an aliquot of 500 μL was removed from the reaction mixture and was incubated for 30 minutes with 500 μL of Griess Reagent in the dark followed by measuring the absorbance at 548 nm for the presence or absence of nitrite. The percent of nitrification inhibition was calculated based on the relative percentage of nitrite measurement against the zero inhibitor control measurement (see FIGS. 2-4 showing the percent control of nitrification inhibition). […]

N. europaea = test: Oxygen (O2) uptake of N. europaea cell suspension; type: cell-based, Nitrosomonas europaea; settings: FIG. 12, cells at 0.5 mg/mL total protein, thiram 4 μM, nitrapyrin and formulations 100 μM
Protocol: 1.5 L of cell culture suspension containing N. europaea bacteria (ATCC #19718) was resuspended into a phosphate buffer (0.1M NaPB, 2 mM Mg SO4, pH of 7.5). The amount of N. europaea protein was quantified using a Biuret assay.
To a buffer solution containing 10 μM of (NH4)2SO4 in a total reaction volume of 5 mL was added 0.25 mg/mL of the N. europaea containing cell suspension. The N. europaea protein content varied (e.g., 0.25 mg/mL, 0.3 mg/mL or 0.5 mg/mL total protein). Measurements of O2 present in the reaction medium were taken immediately after the addition of the cell suspension to the buffer solution for and were taken continuously over a certain time period.
Test compounds and formulations included 4 μM thiram, 100 μM nitrapyrin, 100 μM of formulation 2, 100 μM of formulation 3, 100 μM of formulation 4, 100 μM of formulation 2 plus 4 μM thiram, 100 μM of formulation 3 plus 4 μM thiram; and 100 μM of formulation 4 plus 4 μM, and thiram, untreated N. europaea assay served as the control.
Results are typically plotted as a function of measured oxygen (i.e., the amount of dissolved oxygen) in solution over time to generate a inhibition curve (FIG. 11). Measurements of the area under the inhibition curve can provide a bar chart showing the oxygen consumption of N. europaea of the entire testing period.

Compound | inhibition at 4 µM (Nitrosomonas europaea; 0.5 h, 30 min after (NH4)2SO4, formulation 100 μM) [%] | inhibition at 4 µM (Nitrosomonas europaea; 1 h, 60 min after (NH4)2SO4, formulation 100 μM) [%] | inhibition at 4 µM (N. europaea; Nitrosomonas europaea, read-out: inhibition of oxygen consumption by N. europaea) [%] | inhibition of oxygen consumption by N. europaea (N. europaea)
CN(C)C(=S)SSC(=S)N(C)C [Thiram] | 77.7 ± 1 | 77.3 ± 1.2 | 20 | –
Clc1cccc(C(Cl)(Cl)Cl)n1 [nitrapyrin, 2-chloro-6-(trichloromethyl)-pyridine] | – | – | – | did not inhibit
